Here are results for one molecule from patent publication US6300327A, “Compositions and methods for potentiation of neurotrophin activity” (The University of Southern California, priority 1997, dated 2001).

In assay [1] the test system is forebrain cholinergic neurons (cultures of rat basal forebrain). Briefly: ChAT activity in primary cultures of fetal rat basal forebrain (septal) cholinergic neurons treated with neurotrophins and K-252 compounds. Type of assay: cell-based. As to the method:
Recombinant human NGF (rhNGF), BDNF (rhBDNF), and NT-3 (rhNT-3) and K-252b were added to primary cultures of fetal rat brain neurons containing either forebrain cholinergic or midbrain dopaminergic neurons. A broad range of concentrations of K-252b were tested in presence of 50 ng/ml rhNGF, 200 ng/ml rhBDNF and 1 μg/ml rhNT-3, growth factor concentrations producing maximal trophic actions on cholinergic neurons. The trophic action was monitored by measuring the activity of ChAT, a parameter reflecting both survival and transmitter-specific differentiation of cholinergic cells.
Primary cultures of fetal rat brain septal and mesencephalic cells were prepared in a heretofore known manner [Knusel et al., supra]. Briefly, defined areas were dissected from fetal rat brains (Wistar, E15-16, Charles River, Mass.). The septal area contained the cholinergic neurons from septum, diagonal band of Broca and nucleus basalis. The ventral mesencephalon containing the dopaminergic neurons of the substantia nigra and the ventral tegmental area was dissected and dissociated mechanically. The cells were plated in 16 mm multiwell plates precoated with polyethyleneimine (1 mg/ml, 37° C., overnight), containing 0.5 ml modified L-15 medium supplemented with 5% heat inactivated horse serum and 0.5% heat inactivated fetal calf serum. Modified L-15 was prepared [Knusel et al., "Selective and Nonselective Stimulation of Central Cholinergic and dopaminergic Development in vitro by Nerve Growth Factor, Basic Fibroblast Growth Factor, Epidermal Growth Factor, Insulin and the Insulin-like Growth Factors I and II," J. Neurosci. 10:558-570 (1990)] by adding various amino acids, vitamins, antibiotics, glucose and NaHCO3 to Leibovitz's L-15 medium (Gibco, Grand Island, N.Y.). Plating densities were 4×10^5 cells/cm^2 for basal forebrain cultures and 3×10^5 cells/cm^2 for mesencephalic cultures. Of these cells, 0.5 to 1% were cholinergic or dopaminergic, respectively. Growth factors were typically added on the second day of culture and the cells were grown for 5 or more days. For ChAT assays tissue was homogenized in 250 μl of 50 mM Tris-HCl buffer, pH 6.0 with 0.3% Triton X-100. [1-^14 C]acetylcoenzyme A (NEN) concentration was 20 μM and specific activity 4.09 Ci/mol. To measure dopamine uptake, cultures were preincubated for 5 min at 37° C. with 250 μl incubation solution (5 mM glucose, 1 mM ascorbic acid in PBS) containing 1 mM pargyline. [^3 H]dopamine (37 Ci/mmol) was then added to give a final concentration of 50 nM and the cultures were incubated for another 15 minutes. Blanks were obtained by incubating cells at 0° C.
FIG. 1 illustrates levels of ChAT activity in cultures of rat basal forebrain treated with rhNGF, rhBDNF, or rhNT- and K-252b. Growth factors were added on the second day of culture and the cells were grown for 5 days. Growth factor concentrations producing maximal elevations of ChAT activity were used. In FIG. 1, .largecircle. represents the control; .quadrature., 50 ng/ml rhNGF; Δ, 200 ng/ml rhBDNF; and .tangle-soliddn., 1 μg/ml rhNT-3. The ChAT stimulation mediated by all three neurotrophins was inhibited by K-252b at concentrations above 200 nM. […] N=4 per data point. Error bars represent SEMs and were omitted where they would have appeared smaller than the symbol.
These compounds were accordingly tested for possible NT-3 potentiation at lower concentrations than necessary for NGF inhibition. Culture conditions were as described in Example 1. Cultures were untreated (controls) or treated with 200 ng/ml NT-3 and increasing concentrations of the inhibitors. The findings are shown in FIG. 6, in which "Stau", "K2a", "K2b", "K57", "K58", "K59" represent, respectively, staurosporine, K-252a, K-252b, KT5720, KT5823, and KT5296. […] Staurosporine and KT5296 were ineffective.

The subject of another assay is trk. Briefly: Cell-free tyrosine phosphorylation of recombinant human trk expressed in Sf9 insect cells. The format is biochemical. The following applies: 10 μM K-252b. As to the method: Human trk and trkB were expressed in Sf9 insect cells transfected using a baculovirus system. The trk proteins were immunoprecipitated as described above and the precipitates were incubated with 20 μCi [gamma-^32 P]ATP, 10 mM MnCl2, 20 mM Tris, pH 7.4, for 5 min at 25° C. in the presence of increasing amounts of K-252b or control solution. Phosphorylated proteins were analyzed as described for FIG. 4B. The tyrosine kinase activity of the trk and trkB proteins was activated in the absence of ligand, a common observation for receptor tyrosine kinase produced in the baculovirus system. The trk and trkB proteins were 25% pure as assayed by SDS-PAGE.
K-252b interacts directly with the trk and trkB protein. Human trk and trkB were expressed in Sf9 insect cells transfected using a baculovirus system. trk proteins were immunoprecipitated and the precipitates were incubated with [gamma^32 P]ATP in the presence of increasing amounts of K-252b or control solution.

In the next assay the target is protein kinase C. The following applies: in vitro assay systems; cited from earlier work.

As for `CC12OC(CC1(O)C(=O)O)n1c3ccccc3c3c4c(c5c6ccccc6n2c5c31)CNC4=O` (stereo not shown) [K-252b], the “effect on ChAT actions of NGF or BDNF” value in assay [1] (100 pM to 30 nM K-252b) is “without affecting”. The “effect on potency and maximal efficacy of NT-3 (ChAT)” value in assay [1] (50 nM K-252b) was “increased both potency and maximal efficacy”. Besides, in assay [1] (10-100 nM K-252b with NT-3), the “effect on NT-3 stimulation of ChAT activity” value is given as “same stimulatory effect as NGF”. In addition, the IC100 in assay [1] (Rattus norvegicus, Neuron, read-out: minimal concentration required to completely abolish the ChAT responses) is about 2 µM. In assay [1] (low concentrations of K-252b), the “effect on stimulatory effects of NGF or BDNF on cholinergic neurons” value was “not potentiated”. The “effect on ChAT increases mediated by bFGF, insulin and insulin-like growth factor-1” value in assay [1] (non-neurotrophin growth factors) is listed as “not affected”. In assay [1] (relatively high dosages), the “effect on trophic action of NGF on cholinergic neurons (ChAT)” value is “completely and selectively prevent”. Besides, the “inhibition of action of central cholinergic neurons” value in assay [1] (structural relatives, Example 6) is given as “inhibition”. For the same molecule, the “effect on trk tyrosine phosphorylation, cell-free system” value with trk is “completely prevented”. Moreover, the Ki on protein kinase C was 0.01 to 0.1 µM.

A word on the Ki: it is a measure of affinity in units of concentration, obtained from inhibition or displacement.
